From US4645760A, “Activated aminoglycosides and aminoglycoside-aminocyclitols pharmaceutical compositions and method of use” (priority 1983, dated 1987)
Counter-ions that a name gives are not always drawn.

Legend:
[1] = test system: B. subtilis; experiment: antibiotic disc diffusion after riboflavin/methionine/UV activation; assay type: cell-based; conditions: for potency enhancement of mixture of activated compound and parent compound: 2.8×10^-5 M riboflavin, 0.01M methionine, half hour uv light; for potency after coincubation with irradiated riboflavin vs riboflavin-free parent solution: Example 5, methionine, 365 nm, half hour
Procedure: The parent compounds in the above table were subjected to two synthetic activation processes according to the present invention. As set forth below, the parent compound was incubated with 2.8×10^-5 M riboflavin and 0.01M methionine (a hydrogen donor) for a half hour in the presence of a uv light.
A solution of […] riboflavin, and a hydrogen donor such as 0.01M methionine, was irradiated with ultraviolet light at 365 nm for a half hour to produce oxygen-free radicals.

[2] = test system: superoxide free radicals; experiment: block of nitro-blue tetrazolium (NBT) reduction by superoxide; assay type: biochemical; conditions: photoreduced riboflavin or xanthine-xanthine oxidase; 560 nm; unactivated aminoglycosides
Description: (§1) The auto-oxidation of epinephrine is blocked on a mole-to-mole basis by aminoglycosides and aminoglycoside-aminocyclitols. […] Other colorimetric or chemiluminescence assays for superoxide or hydroxyl radicals which use dyes or other reagents that can develop color selectively in the presence of these radicals can also form the basis of rapid photometric assays for parent aminoglycoside and aminoglycoside-aminocyclitol levels in biological or other aqueous solutions. The degree to which colored products are blocked by the aminoglycoside or the aminoglycoside-aminocyclitol compound would be directly proportional to the concentration of aminoglycosides and aminoglycoside-aminocyclitol compounds. Representative dyes and reactants include the following non-limitative list:
This is spectrophotometrically monitored at 560 nm, where the maximum absorbance of reduced NBT occurs. This procedure decreases in sensitivity at pH's higher than 7.0 and at very high (millimolar) drug concentrations. The reason for these limits is that superoxide reacts with aminoglycosides to generate a reducing compound which can interfere with the assay by directly reducing NBT.

[3] = test system: epinephrine autoxidation; experiment: epinephrine autoxidation inhibition assay (oxygen radical reactivity); assay type: biochemical; conditions: for IC50: 25° C., 0.1M sodium carbonate, pH 10.2, A320, sulfate form, read-out: (A) Molarity for 50% inhibition of epinephrine autoxidation; for relative molar ratio for 50% inhibition: KM:SM:NM:GM; for B/A Molar ratio (epinephrine molarity / molarity for 50% inhibition): pH 10.2, 25° C.
Procedure: The oxygen radical reactivity of 4-aminoglycosides KM, streptomycin (SM), neomycin (NM), and gentamicin (GM) was tested using a previously described modification of the commonly used epinephrine autoxidation assay. […] Further studies are required to determine the identification of the reacting active oxygen species (e.g. singlet oxygen, hydroperoxy radicals, superoxide radicals, hydroxyl radicals, or others).
Reactions were performed at 25° C.; in 0.1M sodium carbonate, pH 10.2. Absorbance at 320 nm (A320) as measured with a Varian model 219 spectrophotometer. Antibiotics (Sigma) were used in the sulfate form; the working molecular weight reflects the anhydrous weight of the base. At least five aminoglycoside concentrations, each replicated four times, were used to estimate the 50% epinephrine autoxidation inhibition value. Epinephrine concentrations yielding between 0.23 and 0.27 ΔA320 per minute was the basis for calculating the percent of inhibition. The data were analyzed by linear regression; standard deviations are shown.
When the unactivated aminoglycoside-aminocyclitol compounds are added at pH=10.2 to a cuvette containing epinephrine and 0.1 molar carbonate buffer, the aminoglycosides block the autoxidation of epinephrine to adrenochrome on approximately a mole-to-mole basis. This blockade is monitored spectrophotometrically at 320 nm and is a linear function of drug concentration. Using 9×10^-4 molar epinephrine, the linear region extends from 10^-5 to 10^-3 molar aminoglycoside. The sensitivity of this assay can be extended by lowering the starting epinephrine concentration.

[4] = test system: E. Coli (ATC 25922); experiment: disc inhibition zone, E. Coli (Table 1); assay type: cell-based; conditions: for zone of inhibition at 40 µg/disc: Escherichia coli, read-out: mm inhibition zone due to 40 μgm/disc, organism - E. Coli; for mm inhibition zone, E. Coli per log concentration antibiotic: slope, 2000 and 200 ppm
Procedure: (§2) ^1 9 ml antibiotic #5 agar (Difco), was poured warm into 15 ×
(§3) 100 mm Plastic petri dishes and seeded with test bacteria to a density of
(§4) 2 × 10^6 bacteria per ml (except B. subtilis which was seeded a
(§5) in item 2 below). Q uarter inch sterile filter discs were placed on the
(§6) agars and loaded with 20 microliters of test solutions at concentrations
(§7) of 2000 and 200 ppm. The antibiotic amounts therefore were 40
(§8) micrograms/disc or 4 micrograms/disc. Slopes were based on duplicate
(§9) tests of each substance at these two concentrations. All substances, each
(§10) at two concentrations were tested on each plate. Data were averaged.
(§11) ^3 Concentration of compound 4 MM 0500a1 was adjusted to represent th
(§12) total organic content. That is, 2000 ppm means 2000 parts organic materia
(§13) per million parts water.

[5] = test system: S. aureus (ATCC 25923); experiment: disc inhibition zone, S. aureus (Table 1); assay type: cell-based; conditions: for zone of inhibition at 40 µg/disc: Staphylococcus aureus, ATCC25923, read-out: mm inhibition zone due to 40 μgm/disc, Staphylococcus aureus (printed "coccus aureus"); for mm inhibition zone, S. aureus per log concentration antibiotic: slope, 2000 and 200 ppm
Procedure: as §2, §3, §4, §5, §6, §7, §8, §9, §10, §11, §12, §13

[6] = test system: Bacillus subtilis; experiment: disc inhibition zone, Bacillus subtilis (Table 1); assay type: cell-based; conditions: for zone of inhibition at 40 µg/disc: Bacillus subtilis, 40 μgm/disc, 30 degrees, 18 hours, read-out: mm inhibition zone due to 40 μgm/disc, organism - Bacillus subtilis; for mm inhibition zone, B. subtilis per log concentration antibiotic: slope by regression
Procedure: ^2 9 ml antibiotic #5 media (Difco), seeded to a concentration of 0.2
microliters of B. subtilis spores/500 ml agar, was dispensed into 15
× 100 ml plastic petri dishes. One quarter inch Schleicher and
Schuell sterile filter discs were placed on the agar and loaded with 20
microliters of dilutions of test compound including dilutions of 2000 ppm
600 ppm, 200 ppm, 60 ppm, and 20 ppm. The plates were incubated overnight
at 30 degrees centigrade, the inhibition zones measured at 18 hours. All
values were based on 6 tests at a given concentration; each plate was
corrected to an average kill zone due to 20 microliters of neomycin B bas
at a concentration of 30 ppm. Slopes and kill zones for 40 microgramloade
discs were obtained usi ng regression analysis.
as §11, §12, §13

[7] = test system: Pseudomonas maltophilispp.; experiment: disc inhibition zone, Pseudomonas maltophilia (Table 1); assay type: cell-based; conditions: read-out: mm inhibition zone due to 40 μgm/disc, organism - Pseudomonas maltophilispp.
Procedure: as §2, §3, §4, §5, §6, §7, §8, §9, §10, §11, §12, §13

[8] = test system: Pseudomonas aeruginosa (ATCC 22853); experiment: disc inhibition zone, Pseudomonas aeruginosa (Table 1); assay type: cell-based; conditions: ATCC22853, read-out: mm inhibition zone due to 40 μgm/disc, organism - Pseudomonas aeruginosa
Procedure: as §2, §3, §4, §5, §6, §7, §8, §9, §10, §11, §12, §13

[9] = assay type: physicochemical
[10] = test system: hydroxyl free radicals; experiment: hydroxyl free radical spin-adduct formation by Electron Paramagnetic Resonance; assay type: biochemical; conditions: spin traps ntb or DMPO; xanthine/xanthine oxidase, pH 7.8; millimolar drug
Description: as §1
Two spin traps were examined with the same conclusion, nitrosotertiary-butyl (ntb) and 5,5-dimethyl-1-pyrroline-1-oxide. The reaction mixture used to produce hydroxyl radical included 10^-4 M xanthine, 6×10^-8 M xanthine oxidase, 10^-3 EDTA, 10^-4 M spin trap (DMPO or ntb), 8.9×10^-5 M H2 O2, 0.1M potassium phosphate buffer; final pH--7.8. The free radical signals were directly monitored with and without the antibiotics by using the techniques of Electron Paramagnetic Resonance starting 2 minutes after reaction initiation. The scan range=100 Gauss; time constant=0.064 sec; modulation amplitude=1 Gauss; Microwave power=1 Mw; Microwave frequency=9.418 GHz; Field set=3350 Gauss; scan time=20 seconds; modulation frequency=100 KHz. AH =AN =14.9 G.

[11] = test system: bacteria (E. coli, Pseudomona aeruginosa); experiment: bacterial killing by aminoglycosides (gentamicin, kanamycin) with coincubated enzyme; assay type: cell-based; conditions: coincubation, extracellular enzyme

Row | Molecule | potency enhancement of mixture of activated compound and parent compound [1] [%] | potency after coincubation with irradiated riboflavin vs riboflavin-free parent solution [1] | NBT reduction rate / blockade [2] | IC50 [3] [mM] | relative molar ratio for 50% inhibition [3] | B/A Molar ratio (epinephrine molarity / molarity for 50% inhibition) [3] | hydroxyl free radical spin-adduct formation [10] | other results
1 | NC[C@H]1O[C@H](O[C@H]2[C@H](O)[C@@H](O[C@H]3O[C@H](CO)[C@@H](O)[C@H](N)[C@H]3O)[C@H](N)C[C@@H]2N)[C@H](O)[C@@H](O)[C@@H]1O [KM, kanamycin] | 25 | enhanced potency | the rate of NBT reduction is slowed proportionally to the concentration of aminoglycoside | 0.7 ± 0.1 | ~ 6 | 1.11 | – | epinephrine autoxidation blocked ([3]; fourfold molar excess of KM): 97%
2 | NC[C@@H]1O[C@H](O[C@H]2[C@@H](O)[C@H](O[C@@H]3[C@@H](O)[C@H](N)C[C@H](N)[C@H]3O[C@H]3O[C@H](CN)[C@@H](O)[C@H](O)[C@H]3N)O[C@@H]2CO)[C@H](N)[C@@H](O)[C@@H]1O [NM, neomycin] | 100 | enhanced potency | – | 2.1 ± 0.14 | ~2 | 0.39 | – | –
3 | NC[C@@H]1O[C@H](O[C@H]2[C@@H](O)[C@H](O[C@@H]3[C@@H](O)[C@H](N)C[C@H](N)[C@H]3O[C@H]3O[C@H](CN)[C@@H](O)[C@H](O)[C@H]3N)O[C@@H]2CO)[C@H](N)[C@@H](O)[C@@H]1O [NMb, Neomycin B base] | – | – | the rate of NBT reduction is slowed proportionally to the concentration of aminoglycoside | – | – | – | – | zone of inhibition at 40 µg/disc [4]: 14.9 mm; mm inhibition zone, E. Coli per log concentration antibiotic [4]: 5.5 mm per log concentration; zone of inhibition at 40 µg/disc [5]: 17.2 mm; mm inhibition zone, S. aureus per log concentration antibiotic [5]: 6.1 mm per log concentration; zone of inhibition at 40 µg/disc [6]: 23.3 mm; mm inhibition zone, B. subtilis per log concentration antibiotic [6]: 5.6 mm per log concentration; zone of inhibition at 40 µg/disc [7]: 8.3 mm; zone of inhibition at 40 µg/disc [8]: 10.7 mm; solubility in DMSO [9]: DMSO- insoluble
4 | NC[C@H]1O[C@H](O[C@H]2[C@H](O)[C@@H](O)[C@H](N)C[C@@H]2N)[C@H](N)[C@@H](O)[C@@H]1O [Neomycin A base (neamine), Neomycin A base] | – | – | – | – | – | – | – | zone of inhibition at 40 µg/disc [4]: 24.7 mm; mm inhibition zone, E. Coli per log concentration antibiotic [4]: 7.8 mm per log concentration; zone of inhibition at 40 µg/disc [5]: 29.8 mm; mm inhibition zone, S. aureus per log concentration antibiotic [5]: 9.4 mm per log concentration; zone of inhibition at 40 µg/disc [6]: 33.8 mm; mm inhibition zone, B. subtilis per log concentration antibiotic [6]: 7.0 mm per log concentration; zone of inhibition at 40 µg/disc [7]: 0 mm; zone of inhibition at 40 µg/disc [8]: 0 mm
5 | [H]/N=C(/N)N[C@H]1[C@H](O)[C@@H](O)[C@H](O[C@@H]2O[C@@H](C)[C@](O)(C=O)[C@H]2O[C@@H]2O[C@@H](CO)[C@H](O)[C@@H](O)[C@@H]2NC)[C@@H](N/C(N)=N\[H])[C@@H]1O [SM, streptomycin] | 18 | enhanced potency | – | 0.74 ± 0.1 | ~ 6 | 1.08 | – | –
6 | NC[C@H]1O[C@H](O[C@H]2[C@H](O)[C@@H](O[C@H]3O[C@H](CO)[C@@H](O)[C@H](N)[C@H]3O)[C@H](N)C[C@@H]2N)[C@H](O)[C@@H](O)[C@@H]1O [kanamycin sulfate] | – | – | – | – | – | – | prevented in a concentration-dependent manner | –
7 | NC[C@@H]1O[C@H](O[C@H]2[C@@H](O)[C@H](O[C@@H]3[C@@H](O)[C@H](N)C[C@H](N)[C@H]3O[C@H]3O[C@H](CN)[C@@H](O)[C@H](O)[C@H]3N)O[C@@H]2CO)[C@H](N)[C@@H](O)[C@@H]1O [neoomycin B sulfate, neomycin B sulfate] | – | – | – | – | – | – | prevented in a concentration-dependent manner | –
8 | [H]/N=C(/N)N[C@H]1[C@H](O)[C@@H](O)[C@H](O[C@@H]2O[C@@H](C)[C@](O)(C=O)[C@H]2O[C@@H]2O[C@@H](CO)[C@H](O)[C@@H](O)[C@@H]2NC)[C@@H](N/C(N)=N\[H])[C@@H]1O [streptomycin sulfate] | – | – | – | – | – | – | prevented in a concentration-dependent manner | –
9 | Catalase | – | – | – | – | – | – | – | effect on bacterial killing by aminoglycosides (gentamicin, kanamycin) [11]: Catalase blockade occurs alone
10 | gentamicin [GM] | 167 | enhanced potency | the rate of NBT reduction is slowed proportionally to the concentration of aminoglycoside | 4.4 ± 0.46 | ~1 | 0.19 | – | –
